# Publication PMC7956626, “Phenylalanine-Derived β-Lactam TRPM8 Modulators. Configuration Effect on the Antagonist Activity” (International Journal of Molecular Sciences, 2021)
# “Also recorded” adds a separate entry of the source.
# What was measured:
# [1] = target: T1, rat TRPM8 (Rattus norvegicus, UniProt Q8R455); assay: Ca2+ intracellular influx assay (calcium microfluorimetry), menthol-induced; format: cell-based; details: 100 μM menthol; for % Blockade 5 μM: compound 5 μM; for % Blockade 5 μM / % Blockade 50 μM / IC50: HEK-rTRPM8; for Menthol-induced fluorescent signal: compound 10 μM, representative graph Figure A1; for % Blockade 50 μM: compound 50 μM
# T1 construct: expressed in transfected cells; host or cells: HEK293 (human embryonic kidney), stably transfected
# T1 sequence (Q8R455 whole entry): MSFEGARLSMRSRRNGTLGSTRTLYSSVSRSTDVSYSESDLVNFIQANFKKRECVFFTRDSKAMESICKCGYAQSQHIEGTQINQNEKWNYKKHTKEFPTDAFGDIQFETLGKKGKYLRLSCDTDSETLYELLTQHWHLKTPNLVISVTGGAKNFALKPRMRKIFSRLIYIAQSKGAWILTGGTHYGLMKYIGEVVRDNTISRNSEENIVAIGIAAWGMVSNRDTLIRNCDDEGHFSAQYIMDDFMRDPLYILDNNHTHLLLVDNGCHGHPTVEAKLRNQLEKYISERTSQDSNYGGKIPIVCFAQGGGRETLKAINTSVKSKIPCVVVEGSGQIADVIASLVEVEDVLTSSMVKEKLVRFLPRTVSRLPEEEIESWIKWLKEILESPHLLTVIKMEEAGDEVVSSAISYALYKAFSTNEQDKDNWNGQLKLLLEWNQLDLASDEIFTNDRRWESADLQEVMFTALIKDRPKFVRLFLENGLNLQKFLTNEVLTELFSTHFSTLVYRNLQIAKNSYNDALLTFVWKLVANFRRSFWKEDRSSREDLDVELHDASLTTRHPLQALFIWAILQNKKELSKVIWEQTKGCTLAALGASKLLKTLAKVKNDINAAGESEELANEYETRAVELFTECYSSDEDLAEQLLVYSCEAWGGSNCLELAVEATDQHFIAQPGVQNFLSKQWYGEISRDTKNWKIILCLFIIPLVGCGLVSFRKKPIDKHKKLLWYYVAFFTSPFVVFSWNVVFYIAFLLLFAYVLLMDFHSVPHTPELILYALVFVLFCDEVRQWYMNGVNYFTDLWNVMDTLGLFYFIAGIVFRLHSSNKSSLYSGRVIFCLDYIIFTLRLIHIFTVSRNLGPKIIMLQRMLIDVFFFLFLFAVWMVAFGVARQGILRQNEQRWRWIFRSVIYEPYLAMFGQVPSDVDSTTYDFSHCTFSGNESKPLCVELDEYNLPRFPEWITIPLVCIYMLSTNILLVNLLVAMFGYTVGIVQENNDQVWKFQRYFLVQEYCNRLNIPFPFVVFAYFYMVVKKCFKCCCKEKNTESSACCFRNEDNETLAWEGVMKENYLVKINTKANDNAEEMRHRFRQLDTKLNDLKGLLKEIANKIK
# Description: The four obtained diastereomeric compounds were evaluated for their ability to inhibit menthol-induced Ca^2+ intracellular influx into the cytosol on HEK293 cells heterologously expressing rat TRPM8. The well-known TRPM8 antagonist N-(3-aminopropyl)-2-[(3-methylphenyl)methoxy]-N-(2-thienylmethyl)-benzamide (AMTB) was used as control. Some representative graphs for compound 14 and 16 at 10 μM on HEK-rTRPM8 cells are included in Figure A1.
# Compounds were evaluated for their activity against rTRPM8 using microfluorometry based calcium flux assays with Fluo-4 NW Ca^2+ dye and fluorescence were measured at excitation wavelength of 485 nm and emission wavelength of 520 nm using POLASTAR plate reader (BMG Labtech). Briefly human embryonic kidney cell line (HEK) stably transfected with rTRPM8 were seeded in 96-well plates at a cell density of 30,000 cells and 2 days before the medium was replaced with 100 μL of the dye loading solution Fluo-4 NW supplemented with probenecid 2.5 mM. After 1 h incubation at 37 °C, plates were transferred to the plate reader and the baseline fluorescence was recorded for 3 cycles before the addition of vehicle, compound at different concentrations and the antagonist, 10 μM AMTB for TRPM8. Fluorescence intensity was recorded during 7 more cycles and the agonist was added, 100 μM menthol. Fluorescence intensity was recorded during 10 more cycles.
# Data analysis: the fluorescence values obtained for each compound concentration were normalized to that prompted by the control agonist (100 μM menthol). Decrease in menthol signal was expressed as percentage of inhibition (%). All data are expressed as the mean ± standard deviation (SD). Each condition was assessed in triplicate (n = 3) in 3 independent experiments (N = 3). The Z-factor was calculated in each assay using the following equation: […]. In all the experiments, the Z-factor was ≥ 0.5. To calculate IC50, normalized responses (%) versus log (μM) were adjusted to a non-linear fit with variable slope, a four-parameter dose–response curve following curve Y = 100/(1 + 10^((Log IC50-X) × HillSlope)) where […].
# [2] = target: T2, hTRPV1 (Homo sapiens, UniProt Q8NER1); assay: Ca2+ influx assay, TRPV1 selectivity; format: cell-based; details: compound 50 μM; read-out: % TRPV1 Blockade at 50 μM
# T2 construct: expressed in transfected cells
# T2 sequence (Q8NER1 whole entry): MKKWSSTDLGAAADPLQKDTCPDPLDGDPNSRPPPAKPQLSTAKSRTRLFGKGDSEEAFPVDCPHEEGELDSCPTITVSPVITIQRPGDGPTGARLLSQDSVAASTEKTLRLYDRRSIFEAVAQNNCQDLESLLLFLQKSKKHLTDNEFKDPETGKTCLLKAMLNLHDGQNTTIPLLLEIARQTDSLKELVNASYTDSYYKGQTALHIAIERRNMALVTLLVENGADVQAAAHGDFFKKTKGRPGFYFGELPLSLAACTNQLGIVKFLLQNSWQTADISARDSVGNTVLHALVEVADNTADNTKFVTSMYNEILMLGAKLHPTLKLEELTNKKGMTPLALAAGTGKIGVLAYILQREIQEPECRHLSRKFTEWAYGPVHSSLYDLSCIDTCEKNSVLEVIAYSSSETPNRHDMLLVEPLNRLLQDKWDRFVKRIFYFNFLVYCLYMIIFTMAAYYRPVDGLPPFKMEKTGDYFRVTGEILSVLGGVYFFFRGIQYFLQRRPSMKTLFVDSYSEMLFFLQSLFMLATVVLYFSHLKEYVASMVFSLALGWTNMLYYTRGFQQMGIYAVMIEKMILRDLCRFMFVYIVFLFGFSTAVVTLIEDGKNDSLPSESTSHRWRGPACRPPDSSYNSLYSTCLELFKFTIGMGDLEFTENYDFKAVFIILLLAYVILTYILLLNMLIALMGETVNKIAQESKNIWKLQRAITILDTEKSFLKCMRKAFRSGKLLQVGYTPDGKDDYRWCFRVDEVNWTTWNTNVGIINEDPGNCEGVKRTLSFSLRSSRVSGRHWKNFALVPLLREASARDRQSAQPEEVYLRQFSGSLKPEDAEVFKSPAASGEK
# From the text: (§1) Because some molecular cross-recognition may occur within thermoTRP members, we evaluated the effect of compounds 14 and 16 on recombinantly expressed hTRPV1 and hTRPA1 channels. Data shown in Table 2 indicate that these β–lactam derivatives marginally cross-reacted with these channels, thus substantiating that they are potent and selective inhibitors of TRPM8.
# [3] = target: T3, hTRPA1 (Homo sapiens, UniProt O75762); assay: Ca2+ influx assay, TRPA1 selectivity; format: cell-based; details: compound 50 μM; read-out: % TRPA1 Blockade at 50 μM
# T3 construct: expressed in transfected cells
# T3 sequence (O75762 whole entry): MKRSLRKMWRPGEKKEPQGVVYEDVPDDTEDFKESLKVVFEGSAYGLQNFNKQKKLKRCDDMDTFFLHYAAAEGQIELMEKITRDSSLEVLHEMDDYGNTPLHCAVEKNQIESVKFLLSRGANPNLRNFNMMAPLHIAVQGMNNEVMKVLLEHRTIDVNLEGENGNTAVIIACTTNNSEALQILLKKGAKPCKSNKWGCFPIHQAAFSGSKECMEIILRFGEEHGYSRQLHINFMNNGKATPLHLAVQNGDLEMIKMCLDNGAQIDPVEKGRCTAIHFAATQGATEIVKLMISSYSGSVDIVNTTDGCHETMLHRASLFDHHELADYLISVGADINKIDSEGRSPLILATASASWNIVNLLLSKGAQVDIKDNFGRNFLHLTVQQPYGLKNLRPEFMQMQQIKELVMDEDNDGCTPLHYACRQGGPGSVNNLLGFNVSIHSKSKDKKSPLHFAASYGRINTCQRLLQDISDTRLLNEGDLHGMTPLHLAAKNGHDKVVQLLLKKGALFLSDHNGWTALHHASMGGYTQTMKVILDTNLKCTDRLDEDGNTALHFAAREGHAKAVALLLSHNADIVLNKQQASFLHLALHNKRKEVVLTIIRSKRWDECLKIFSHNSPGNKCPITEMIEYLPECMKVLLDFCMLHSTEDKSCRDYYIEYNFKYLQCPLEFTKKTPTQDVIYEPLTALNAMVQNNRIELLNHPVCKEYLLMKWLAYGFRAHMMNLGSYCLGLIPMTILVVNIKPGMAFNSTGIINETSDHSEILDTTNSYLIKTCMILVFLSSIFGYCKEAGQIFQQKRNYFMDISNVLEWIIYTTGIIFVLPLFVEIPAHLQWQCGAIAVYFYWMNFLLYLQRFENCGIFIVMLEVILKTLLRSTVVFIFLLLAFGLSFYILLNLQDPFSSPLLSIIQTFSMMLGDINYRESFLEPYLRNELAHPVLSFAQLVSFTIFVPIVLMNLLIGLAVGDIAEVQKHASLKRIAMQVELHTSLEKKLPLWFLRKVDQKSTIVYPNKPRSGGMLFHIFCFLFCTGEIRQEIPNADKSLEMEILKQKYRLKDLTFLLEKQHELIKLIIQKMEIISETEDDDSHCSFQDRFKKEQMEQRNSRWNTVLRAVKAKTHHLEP
# From the text: as §1
# [4] = target: T1, rat TRPM8; assay: Whole-cell patch-clamp in HEK293 cells expressing rat TRPM8; format: cell-based; details: 100 μM menthol; for % Blockade at 10 μM: compound 10 μM, whole cell; for IC50: holding potential −60 mV
# Description: In the electrophysiology assay, both compounds at 10 μM concentration were able to block TRPM8-mediated responses induced by menthol (Figure 2 and Figure A2, Table 3). […] After 10 μM of 14 was applied (Figure 2A, red), an important decrease on the menthol-induced TRPM8 activity at depolarizing voltages was observed. A similar behavior was detected after application of diastereomeric β–lactam 16 (Figure 2B). The dose–response curves for both compounds were obtained at a holding potential of −60 mV (Figure 2). The measured IC50 values were 0.9 ± 1.0 μM for 14 (Figure 2C) and 0.05 ± 1.3 μM for 16 (Figure 2D).
# Whole-cell patch-clamp recordings from HEK-rTRPM8 cells were carried out 2 days after seeding on 12-mm Ø glass coverslips treated with poly-L-lysine solution (Sigma Aldrich, Spain); the intracellular pipette solution contained (in mM) 150 NaCl, 5 EGTA, 3 MgCl2 and 10 HEPES, adjusted to pH 7.2 with NaOH, and the extracellular solution contained (in mM) 150 NaCl, 6 CsCl, 1.5 CaCl2, 1 MgCl2, 10 D-glucose and 10 HEPES, adjusted to pH 7.4 with NaOH. The TRPM8 activity was measured by the application of two pulses of 100 μM menthol in a time interval of 2 min and a 30-s perfusion of the different compound concentrations before the second menthol pulse.
# (§2) Data were sampled at 10 kHz (EPC10 amplifier with PatchMaster 2.53 software, HEKA Electronics, Lambrecht, Germany) and low-pass filtered at 3 kHz for analysis (PatchMaster 2.53 and GraphPad Prism 5, Graphpad Software, USA). The series resistance was <10 MΩ and to minimize voltage errors was compensated to 60–80%. All measurements were performed at 24–25 °C. Cell capacitance was measured and used to estimate the current density (J, pA/pF).
# Data analysis: Results are expressed as the percentage of remaining activation of the TRPM8 channel. This is calculated by normalizing the ratio (p2/p1) of testing conditions to the ratio (p2/p1) of the control condition. Analysis of the data was performed by GraphPad 6.0, the Ordinary One-Way ANOVA analysis followed by the post hoc Bonferroni test stablished multiple comparisons and the ROUT method (Q = 10%) identified data outliers. A non-linear regression curve and IC50 were obtained by the representation of log (inhibitor) vs. response. All data are expressed as the mean ± standard error of the mean (SEM) (n = 5–8).
# [5] = tested on: rat DRG sensory neurons; assay: Current-clamp resting membrane potential of DRG sensory neurons; format: cell-based; details: compound 10 μM, t-test ns
# Description: Next, we investigated the effect of the membrane of rat DRG sensory neurons. […] Sensory neurons were functional as evidenced by action potentials fired exposed to 100 μM menthol (Figure 3A, top trace).
# Current-Clamp recordings from rat DRGs were carried out 24–48 h after seeding on 12-mm Ø glass coverslips treated with poly-L-lysine solution and Laminin (Sigma Aldrich). The intracellular pipette solution contained (in mM): 4 NaCl, 126 K gluconate, 0.02 CaCl2, 1 MgSO4, 5 HEPES, 15 glucose, 3 ATP, 0.1 GTP and 5 EGTA, pH 7.2 with KOH. The extracellular solution contained (in mM): 140 NaCl, 4 KCl, 2 CaCl2, 2 MgCl2, 10 HEPES, 5 glucose and 20 mannitol, pH 7.4 with NaOH. The membrane potential was measured in the absence and the presence of compounds 14 and 16 at 10 μM in a time interval of 1 min.
# as §2
# [6] = tested on: rat DRG neurons; assay: Microelectrode array, KCl-evoked action potentials in DRG neurons; format: cell-based; details: compound 10 μM; 40 mM KCl
# From the text: To further interrogate β–lactam derivatives’ action on the excitability of DRG neurons we next used microelectrode arrays (MEA). This technology records the electrogenic activity of neural populations that are located near to an electrode, but it cannot differentiate the number of neurons or other cells contributing to it. We used MEA chips with 60 electrodes and monitored the electrical activity at each electrode to measure if the potent inhibitory effect of β–lactam derivatives act on voltage-gated Na^+ and K^+ channels present in neurons and responsible for action potential propagation. Neurons isolated from neonatal rat dorsal root ganglions (DRG) were cultured on MEA chambers. The experimental paradigm consisted in applying a first 15-s pulse (P1) of 40 mM KCl, to evoke action potentials. […]
# Data analysis: Data were analyzed using an MC_RACK spike sorter with a sample rate of 25 kHz and a Butterworth high-pass 2nd order filter applied with 200 Hz cutoff. […] Spiking activity was measured in a temporal interval of 30 s, starting right after instillation of the activating stimuli. […] The recorded signals were then processed to extract mean spike frequency for each pulse (P1–P2). Then, the ratio P2/P1 of mean spike frequency was calculated and normalized to vehicle for comparing the different conditions used.
# [7] = tested on: TRPM8; set-up: method as in PMID 25893043, PMID 30148953; details: healthy volunteers and migraneous patients, respectively; ref [35],[36]; cited from earlier work
# [8] = target: T1, rat TRPM8; set-up: method as in PMID 32843690; details: ref [41]; cited from earlier work
# [9] = tested on: oxaliplatin-induced allodynia; set-up: method as in PMID 32843690; details: mice; from 15 to up to 60 min; ref [41]; cited from earlier work
# [10] = tested on: four tumor cell lines; set-up: method as in PMID 32843690; details: non-selective, ref [41]; cited from earlier work
% Blockade 5 μM [1] [%],Menthol-induced fluorescent signal [1],% Blockade 50 μM [1] [%],inhibition at 50 µM [2] [%],inhibition at 50 µM [3] [%],% Blockade at 10 μM [4] [%],IC50 [4] [nM],IC50 [1] [nM],Compound,Effect on resting membrane potential [5],Effect on potassium-evoked action potentials (electrogenicity) [6],Adverse effects in phase I clinical trials [7],Block of channel activation by menthol (Ca2+ entry assay) [8],Oxaliplatin-induced allodynia [9],Antitumor activity [10]
87.3 ± 8.1,completely blocked,98.5 ± 3.2,4.2 ± 3.2,0.5 ± 4.1,79.3 ± 2.7,50,,"C[C@H]1C(=O)N(C[C@@H](Cc2ccccc2)N(Cc2ccccc2)Cc2ccccc2)[C@@]1(Cc1ccccc1)C(=O)OCc1ccccc1 [Compound 16, 4R-Benzyl-1-[(2′R-dibenzylamino-3′-phenyl-)prop-1′-yl]-4-benzyloxicarbonyl-3R-methyl-2-oxoazetidine]",do not affect the membrane resting potential,do not alter potassium-evoked action potentials; also recorded: did not affected the electrogenicity,,,,
,,,,,,,,C[C@H](c1ccc(F)cc1)N(Cc1cccc(C(=O)O)c1)C(=O)c1cnc2ccccc2c1 [PF-05105679],,,"several adverse effects, including feeling hot",,,
71.1 ± 4.3,,90.3 ± 2.8,5.3 ± 3.4,2.6 ± 1.9,,,700 ± 1100,"C[C@H]1C(=O)N(C[C@H](Cc2ccccc2)N(Cc2ccccc2)Cc2ccccc2)[C@@]1(Cc1ccccc1)C(=O)OCc1ccccc1 [Compound 15, 4R-Benzyl-1-[(2′S-dibenzylamino-3′-phenyl)prop-1′-yl]-4-benzyloxicarbonyl-3R-methyl-2-oxoazetidine]",,,,,,
,,,,,,,,C[C@@H]1C(=O)N(C[C@H](Cc2ccccc2)NC(=O)OCc2ccccc2)[C@]1(Cc1ccccc1)C(=O)OCc1ccccc1 [Compound 1],,,,micromolar values,significantly reduces the oxaliplatin-induced allodynia,micromolar potency in four tumor cell lines
57.7 ± 7.2,,86.1 ± 5.0,7.9 ± 3.2,3.7 ± 4.1,,,3100 ± 1100,"C[C@@H]1C(=O)N(C[C@H](Cc2ccccc2)N(Cc2ccccc2)Cc2ccccc2)[C@]1(Cc1ccccc1)C(=O)OCc1ccccc1 [Compound 13, 4S-Benzyl-1-[(2′S-dibenzylamino-3′-phenyl-)prop-1′-yl]-4-benzyloxicarbonyl-3S-methyl-2-oxoazetidine]",,,,,,
78.9 ± 1.7,completely blocked,87.7 ± 3.1,2.8 ± 4.1,2.4 ± 1.4,77.2 ± 2.7,900 ± 1000,,"C[C@@H]1C(=O)N(C[C@@H](Cc2ccccc2)N(Cc2ccccc2)Cc2ccccc2)[C@]1(Cc1ccccc1)C(=O)OCc1ccccc1 [Compound 14, 4S-Benzyl-1-[(2′R-dibenzylamino-3′-phenyl)prop-1′-yl]-4-benzyloxicarbonyl-3S-methyl-2-oxoazetidine]",do not affect the membrane resting potential,do not alter potassium-evoked action potentials; also recorded: did not affected the electrogenicity,,,,
